These results are taken from US20060166969A1, “AMPA antagonists for the treatment of dizziness, including vertigo and Meniere's disorder” (priority 2005, published 2006).

Assay [1] deals with dizziness, including vertigo and Menière's disorder. Put plainly: Animal models for dizziness, including vertigo and Menière's disorder. Type of assay: in vivo. The following applies: animal models not specified; no data given. From the text:
Animal models for dizziness, vertigo and Menière's disorder include, but are not limited
Electronystagmography in rats (see Fischer, A. J. et al., “Electronystagmography in the laboratory rat”, Acta Otolaryngol., 88, 412-419,1979).
Gentamycin induced nystagmus in guinea pigs (see Okuda, T. et al., “Inner ear changes with intracochlear gentamicin administration in Guinea pigs”, Laryngoscope, 114, 694-697, 2004).
Unilateral peripheral vestibular deafferentation in guinea pigs (see Dutia, M. B. et al., “The opioid receptor antagonist, naloxone, enhances ocular motor compensation in guinea pig following peripheral vestibular deafferentation”, Exp. Neurol., 141,141-144,1996), or rats (see Guilding, C. et al., “11-Beta-hydroxysteroid dehydrogenase type 1 activity in medial vestibular nucleus and cerebellum after unilateral vestibular deafferentation in the rat”, Stress, 7(2),127-130, 2004).
Unilateral labyrinthectomy in rats (see Johnston, A. R. et al., “Differential regulation of GABA(A) and GABA(B) receptors during vestibular compensation”, Neuroreport.;12(3), 597-600, 2001; and Inoue, S. et al., “Glutamate release in the rat medial vestibular nucleus following unilateral labyrinthectomy using in vivo microdialysis”, Brain Res., 991(1-2), 78-83, 2003). […]

A further assay concerns AMPA receptors. Conditions: qualitative statement; affinity for AMPA receptors said to have been published; cited from earlier work.

Turning to `Cc1nc2n(c1C)N=C(c1ccccc1)c1cc3c(cc1C2)OCO3` [8,9-dimethyl-5-phenyl-11H-1,3-dioxolo[4,5-h]imidazo[1,2-c][2,3]benzo-diazepine], the “activity in animal models for dizziness, including vertigo and Menière's disorder” value in assay [1] is “active”. Also, in the assay on AMPA receptors, the “AMPA receptor antagonistic activity” value is reported as “AMPA receptor antagonistic activity”.
